Several values for one entry are separate records, joined by “and”; a condition that tells them apart may be missing. Equal values may be shown once.

The test system of this data set is Tetrahymena pyriformis. The data set can be described thus: 48 h IGC50 (-log10 mol/L); higher = more toxic.
In the case of `O=C(CBr)c1ccc2ccccc2c1`, the “48 h IGC50 (-log10 mol/L)” value amounted to 5.96. The figure for `C=CCCC(C)=O` is 1.86; for `CCCC(=O)NN` it is 2.03; for `CCCCC(Br)C(=O)O` (stereo not drawn) it is 3.46.

Take `Cc1ccc(C)c(O)c1`: the “48 h IGC50 (-log10 mol/L)” value stood at 3.14.

As for `N#CC(C#N)=Cc1ccco1`, the “48 h IGC50 (-log10 mol/L)” value amounted to 3.94. Turning to `Nc1ccc(C(=O)c2ccccc2)cc1`, the “48 h IGC50 (-log10 mol/L)” value turned out to be 3.68. On to `CCC(=O)N(C)C`, for which the “48 h IGC50 (-log10 mol/L)” value stood at 1.43.

As for `O=[N+]([O-])c1ccccc1F`, the “48 h IGC50 (-log10 mol/L)” value is 3.23.

For `CC(C)C(N)CO` (stereo not drawn), the “48 h IGC50 (-log10 mol/L)” value was 2.42. The figure for `CC(N)c1ccccc1` (stereo not drawn) is 2.82; for `CCCCCCOC=O` it is 2.62; for `COC(=O)CCBr` it is 4.03. As for `Cc1cc(O)cc(C)c1Br`, the “48 h IGC50 (-log10 mol/L)” value came to 4.27. The figure for `CCCCOc1ccc([N+](=O)[O-])cc1` is 4.42; for `CCCCCCCCCCC(C)O` (stereo not drawn) it is 4.66; for `Cc1ccc(Cl)c(N)c1Cl` it is 3.69.

For the compound `N#Cc1ccc(C=O)cc1`, the “48 h IGC50 (-log10 mol/L)” value turned out to be 3.04. The figure for `CC(C)(C)CC=O` is 2.63; for `OCC(c1ccccc1)c1ccccc1` it is 3.65; for `NC(CO)CO` it is 1.32. Consider `CCOC(=O)C(Br)CC` (stereo not drawn), for which the “48 h IGC50 (-log10 mol/L)” value stood at 3.76. The figure for `Nc1ccc([N+](=O)[O-])cn1` is 3.22.

On to `CCSCC`, for which the “48 h IGC50 (-log10 mol/L)” value is 2.02. For the compound `CCCCCC/C=C/CO`, the “48 h IGC50 (-log10 mol/L)” value was determined as 3.75. As to `CCCCCCCCC(O)CO` (stereo not drawn), the “48 h IGC50 (-log10 mol/L)” value stood at 3.76. As to `Fc1cccc2ccccc12`, the “48 h IGC50 (-log10 mol/L)” value came to 3.39. On to `NC(=S)NCc1ccccc1`, for which the “48 h IGC50 (-log10 mol/L)” value came out at 3.66. Turning to `OCCOc1cccc(O)c1`, the “48 h IGC50 (-log10 mol/L)” value is 2.13. With `C=C(C)C(=O)OCC(C)C`, the “48 h IGC50 (-log10 mol/L)” value came to 2.72. Then `O=[N+]([O-])c1ccc(Cl)nc1`, with 3.8; and `c1cncnc1`, with 1.25; and `OCc1cccc(Br)c1`, with 3.37. Regarding `S=C=NCCCN=C=S`, the “48 h IGC50 (-log10 mol/L)” value was 5.72 and 5.74. Then `OCc1cccc(Cl)c1`, with 3.15. The figure for `O=Cc1cc(I)cc(I)c1O` is 5.34; for `Oc1c(Cl)cc(Br)cc1Cl` it is 4.78; for `Cc1ccc(Br)s1` it is 3.65.

Consider `COc1ccc(C=O)cc1O`, for which the “48 h IGC50 (-log10 mol/L)” value is 2.86. As for `Oc1ccc(O)c(Br)c1`, the “48 h IGC50 (-log10 mol/L)” value worked out at 4.68. As for `NCCc1ccccn1`, the “48 h IGC50 (-log10 mol/L)” value came to 2.26. The figure for `Clc1cccc2ccccc12` is 3.81; for `O=[N+]([O-])c1ccc(I)c([N+](=O)[O-])c1` it is 5.12.

On to `N#Cc1ccccc1Cl`, for which the “48 h IGC50 (-log10 mol/L)” value turned out to be 3.28. Regarding `O=C(O)c1cccc(Cl)c1`, the “48 h IGC50 (-log10 mol/L)” value is 2.87. Turning to `Oc1cccc(Br)c1`, the “48 h IGC50 (-log10 mol/L)” value is 4.15. The figure for `Cc1cc(Br)cc(C)c1O` is 4.16; for `Nc1ccc([N+](=O)[O-])cc1[N+](=O)[O-]` it is 3.72; for `N#CC(Cl)Cl` it is 3.97. Then `Cc1cnc2ccccc2n1`, with 3.02. Then `CCCCC/C=C/C(C)=O`, with 3.98; and `O=Cc1ccc(O)c2ccccc12`, with 4.05; and `C=C(C)OC(C)=O`, with 2.51.

In the case of `CCCCC#N`, the “48 h IGC50 (-log10 mol/L)” value came out at 1.99. The figure for `O=[N+]([O-])c1cc(F)cc(I)c1` is 4.09; for `CC(=O)c1ccc(C)[nH]1` it is 2.17; for `O=[N+]([O-])c1cc(CO)cc([N+](=O)[O-])c1` it is 3.53. The figure for `OCc1cccc(F)c1` is 2.61. For the compound `O=[N+]([O-])c1cc(Cl)c(Cl)c(Cl)c1Cl`, the “48 h IGC50 (-log10 mol/L)” value was 4.78. Regarding `C=C(C=O)CCCC`, the “48 h IGC50 (-log10 mol/L)” value is 4.07. Then `CCCC(C)N` (stereo not drawn), with 2.31.

On to `N#Cc1ccc[nH]1`, for which the “48 h IGC50 (-log10 mol/L)” value turned out to be 2.42. For the compound `CCCC#CCC(O)CC` (stereo not drawn), the “48 h IGC50 (-log10 mol/L)” value came to 2.96. Turning to `O=C(c1ccccc1)c1ccc(O)cc1O`, the “48 h IGC50 (-log10 mol/L)” value came out at 4.37. As for `CCN(C)CC`, the “48 h IGC50 (-log10 mol/L)” value was found to be 2.24. With `CCCCOC(=O)CCCCCCC(=O)OCCCC`, the “48 h IGC50 (-log10 mol/L)” value is 4.66.

Regarding `CC(C)C[C@H](N)CO`, the “48 h IGC50 (-log10 mol/L)” value was 2.38. Then `O=C(O)c1ccc(O)cc1`, with 1.98; and `COC(=O)CCCCCCCCC(=O)OC`, with 4.01. For `CCC#CCO`, the “48 h IGC50 (-log10 mol/L)” value came out at 2.43.

Take `CCCCCCOc1ccc(N)cc1`: the “48 h IGC50 (-log10 mol/L)” value is 4.38.

For the compound `CCCCCCCCCCCC(C)O` (stereo not drawn), the “48 h IGC50 (-log10 mol/L)” value amounted to 5.17. The figure for `c1csc(-c2cccs2)c1` is 4.04. As to `CCOC(=O)CCCCCBr`, the “48 h IGC50 (-log10 mol/L)” value came out at 3.59. Then `Nc1cc([N+](=O)[O-])ccc1Cl`, with 3.6; and `O=C(c1ccccc1O)c1ccccc1O`, with 4.16; and `OC(CBr)CBr`, with 3.57. As to `C=CCCCO`, the “48 h IGC50 (-log10 mol/L)” value amounted to 1.78.

On to `CC(C)c1ccc(C=O)cc1`, for which the “48 h IGC50 (-log10 mol/L)” value came to 3.67. On to `O=C(OCc1ccccc1)c1ccccc1`, for which the “48 h IGC50 (-log10 mol/L)” value was found to be 4.45. With `N#Cc1cccc2ccccc12`, the “48 h IGC50 (-log10 mol/L)” value is 3.69. Regarding `C/C=C(\C)C=O`, the “48 h IGC50 (-log10 mol/L)” value turned out to be 2.86.

As to `O=C(Cc1ccccc1)c1ccc(O)cc1`, the “48 h IGC50 (-log10 mol/L)” value is 4.07. Regarding `Cc1cc(=O)[nH]cc1[N+](=O)[O-]`, the “48 h IGC50 (-log10 mol/L)” value was determined as 2.83.

Consider `COC(=O)CCl`, for which the “48 h IGC50 (-log10 mol/L)” value was found to be 3.89. The figure for `CCC(=O)Cc1ccccc1` is 2.79; for `CC1=CC(=O)c2c(O)cccc2C1=O` it is 5.2; for `CC#CC(=O)OC` it is 3.4.

Regarding `CC/C=C/C=C/C=O`, the “48 h IGC50 (-log10 mol/L)” value worked out at 3.86. Take `O=C(OCc1ccccc1)c1ccc(O)cc1`: the “48 h IGC50 (-log10 mol/L)” value came out at 4.55. As for `COC(N)=O`, the “48 h IGC50 (-log10 mol/L)” value was found to be 1.02. For `CCC(C)C(N)CO` (stereo not drawn), the “48 h IGC50 (-log10 mol/L)” value is 2.34. The figure for `CCCCCCCCC(O)CCC` (stereo not drawn) is 4.65.

Regarding `OCC(Br)(Br)Br`, the “48 h IGC50 (-log10 mol/L)” value turned out to be 3.11.

As for `CCC(=O)c1ccccc1`, the “48 h IGC50 (-log10 mol/L)” value amounted to 2.93.

Take `CC(C)CCO`: the “48 h IGC50 (-log10 mol/L)” value stood at 1.96. Consider `CCCCCCCCCCN`, for which the “48 h IGC50 (-log10 mol/L)” value was 5.06. The figure for `OCCCCCl` is 2.24. Then `CS(C)(=O)=O`, with 0.8; and `OCc1ccc(Cl)cc1`, with 3.25.

In the case of `OCc1ccc2ccccc2c1`, the “48 h IGC50 (-log10 mol/L)” value was 3.39. On to `N#CCc1ccc(Br)cc1`, for which the “48 h IGC50 (-log10 mol/L)” value turned out to be 3.6. Regarding `CC(C)(C)c1ccncc1`, the “48 h IGC50 (-log10 mol/L)” value came to 3.2. As for `OC/C=C\CO`, the “48 h IGC50 (-log10 mol/L)” value was 0.851. With `O=C(O)CCCBr`, the “48 h IGC50 (-log10 mol/L)” value came to 2.23. With `CCc1cccc(N)c1`, the “48 h IGC50 (-log10 mol/L)” value came out at 2.97. The figure for `O=[N+]([O-])c1cc(F)ccc1O` is 4.38; for `CC(=O)c1ccc(O)cc1C` it is 3.19. As for `C=COC(=O)CCC`, the “48 h IGC50 (-log10 mol/L)” value came to 2.62.

On to `CC(=O)c1ccc(O)cc1O`, for which the “48 h IGC50 (-log10 mol/L)” value is 3.25.

Regarding `Cc1c(N)cccc1O`, the “48 h IGC50 (-log10 mol/L)” value was determined as 2.45. Then `OC1Cc2ccccc2C1`, with 2.31; and `Cc1c(O)ccc(O)c1C`, with 4.41.

As to `O=Nc1ccc(O)cc1`, the “48 h IGC50 (-log10 mol/L)” value turned out to be 3.65. With `O=[N+]([O-])c1cc(Cl)c(Cl)c(Cl)c1`, the “48 h IGC50 (-log10 mol/L)” value turned out to be 4.55. For the compound `O=C(CO)c1ccccc1`, the “48 h IGC50 (-log10 mol/L)” value came out at 3.08. For the compound `CCCCCCC=O`, the “48 h IGC50 (-log10 mol/L)” value is 3. The figure for `N#CCc1ccc(N)cc1` is 2.24; for `CC(=S)Nc1ccccc1` it is 2.99. The figure for `CCC#CCC(C)O` (stereo not drawn) is 2.38; for `Oc1ccc(Cl)c(O)c1` it is 3.13; for `CCCC(Br)C(=O)O` (stereo not drawn) it is 2.96. Consider `C1CSCCS1`, for which the “48 h IGC50 (-log10 mol/L)” value was 2.89. For `N#CCCCC#N`, the “48 h IGC50 (-log10 mol/L)” value is 1.36. Consider `CCc1ccc([N+](=O)[O-])cc1`, for which the “48 h IGC50 (-log10 mol/L)” value was 3.43. For the compound `N#CCBr`, the “48 h IGC50 (-log10 mol/L)” value came out at 5.23. Then `O=Cc1ccc[nH]1`, with 2.52; and `NC(=O)c1ccco1`, with 1.56; and `CCc1cccs1`, with 2.57. The figure for `CCC(O)CC` is 1.76; for `O=[N+]([O-])CBr` it is 4.64. For the compound `O=C(CBr)Nc1cc([N+](=O)[O-])ccc1O`, the “48 h IGC50 (-log10 mol/L)” value was determined as 3.87. The figure for `CC(=O)C(C)=O` is 2.77; for `OCCCCO` it is 0.764.

Consider `CCOc1cccc2ccccc12`, for which the “48 h IGC50 (-log10 mol/L)” value is 4.25. Then `CCCCCCCCCN`, with 4.7.

Regarding `COc1cccc(C=O)c1O`, the “48 h IGC50 (-log10 mol/L)” value turned out to be 3.38. The figure for `Oc1cccc(Cl)c1Cl` is 4.28.

These data come from EPA's aquatic toxicity sets.
